# From publication PMC9054772 (RSC Advances, 2020)
# Biological target: T1, HsPKS1 (Huperzia serrata, UniProt A3E7Z7)
# T1 sequence (A3E7Z7 1-399): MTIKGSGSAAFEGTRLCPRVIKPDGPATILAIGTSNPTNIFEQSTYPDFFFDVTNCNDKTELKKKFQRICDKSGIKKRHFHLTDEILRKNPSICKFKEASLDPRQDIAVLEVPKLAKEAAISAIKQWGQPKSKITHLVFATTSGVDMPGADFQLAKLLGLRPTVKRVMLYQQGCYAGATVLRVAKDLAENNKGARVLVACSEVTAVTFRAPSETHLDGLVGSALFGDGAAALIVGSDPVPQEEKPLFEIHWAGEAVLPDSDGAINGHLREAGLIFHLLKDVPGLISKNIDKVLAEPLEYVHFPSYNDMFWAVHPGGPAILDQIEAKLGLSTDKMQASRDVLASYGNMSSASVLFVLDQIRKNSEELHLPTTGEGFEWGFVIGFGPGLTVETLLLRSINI
# Test: product formation by HPLC / LC-MS
# Type: biochemical
# Conditions: with malonyl-CoA
smiles,measurement,value
CC(C)(COP(=O)(O)OP(=O)(O)OC[C@H]1O[C@@H](n2cnc3c(N)ncnc32)[C@H](O)[C@@H]1OP(=O)(O)O)[C@@H](O)C(=O)NCCC(=O)NCCSC(=O)Cc1ccccn1 [2-pyridylacetyl-CoA],product formation by HPLC / LC-MS (library screen),Only two type III PKSs (HsPKS1 and HsPKS3) from H. serrata
